This note sets out measurements from patent US20120189706A1, “Macrocystis Pyrifera Derived Health and Wellness Products and Methods of Using the Same” (Knocean Sciences, Inc., priority 2009, published 2012).

The test system of one data set is MRC-5 cells. Put plainly: Compound cytotoxicity in Rhinovirus Cytoprotection assay (MTS). To be noted: 7 days. The format is cell-based, Human. The text has this:
The Rhinovirus Cytoprotection assay uses MRC-5 cells and Rhinovirus strains 1B, 14, or 26. […] Each assay includes enviroxime (ENV) as a positive control.

Another data set has as its system Rhinovirus strain 1B. Put plainly: Rhinovirus Cytoprotection assay in MRC-5 cells. Format: cell-based. The procedure: The Rhinovirus Cytoprotection assay uses MRC-5 cells and Rhinovirus strains 1B, 14, or 26. […] Each assay includes enviroxime (ENV) as a positive control. […] The viruses used for this assay are Rhinovirus strains 1B, 14, or 26. […] For each assay, a pre-titered aliquot of virus is removed from the freezer (−80° C.) and allowed to thaw slowly to room temperature in a biological safety cabinet. The virus is resuspended and diluted into tissue culture medium such that the amount of virus added to each well is the amount determined to give between 85 to 95% cell killing at 6-7 days post-infection.

In a further data set the test system is HIV-1 strain IIIB. Put plainly: HIV-1 Cytoprotection assay. Format: cell-based.
A further data set relates to HSV-1 strain HF. Put plainly: HSV Cytoprotection assay. Format: cell-based. As to the method: The HSV Cytoprotection assay uses Vero cells and HSV-1 strain HF or HSV-2 strain MS. […] Each assay includes acyclovir (ACV) as a positive control. […] The standard viruses used for this assay are HSV-1 strain HF and HSV-2 strain MS (other viruses available upon request). […] For each assay, a pre-titered aliquot of virus is removed from the freezer (−80° C.) and allowed to thaw slowly to room temperature in a biological safety cabinet. The virus is resuspended and diluted into tissue culture medium such that the amount of virus added to each well is the amount determined to give between 85 to 95% cell killing at 5 days post-infection.

Data set [1] is described as follows: Compound cytotoxicity in HSV Cytoprotection assay (MTS). Format: cell-based. To be noted: African green monkey (Cercopithecus aethiops), Vero cells (uninfected, cells plus compound only), read-out: TC50.
Data set [2] relates to Influenza A strain A/Victoria/3/75 (H3N2). Put plainly: Influenza A Cytoprotection assay. The settings on record: Influenza A virus, H3N2, 168 h, MDCK cells, 7 days. The format is cell-based.
In another data set the test system is Coxsackie A strain A7. Put plainly: Coxsackie A virus Cytoprotection assay. Format: cell-based. The settings on record: MRC5, 168 h, MRC-5 cells, 7 days. The procedure:
The Coxsackie A virus Cytoprotection assay uses MRC-5 cells and Coxsackie A strains A7 or A21. […] Each assay includes ribavirin (RBV) as a positive control. […] The viruses used for this assay are Coxsackie A strains A7 or A21. […] For each assay, a pre-titered aliquot of virus is removed from the freezer (−80° C.) and allowed to thaw slowly to room temperature in a biological safety cabinet. The virus is resuspended and diluted into tissue culture medium such that the amount of virus added to each well is the amount determined to give between 85 to 95% cell killing at 7 days post-infection.

The subject of the next data set is Vero E6 cells. Put plainly: Compound cytotoxicity in Dengue Virus Cytoprotection assay (MTS). The settings on record: 7 days.
Another data set concerns RSV strain Long. Put plainly: Respiratory Syncytial Virus (RSV) Cytoprotection assay. Format: cell-based. The settings on record: human respiratory syncytial virus, 168 h, A549 cells, 7 days. The procedure: The Respiratory Syncytial Virus (RSV) Cytoprotection assay uses A549 cells and RSV strain Long. […] Each assay includes ribavirin (RBV) as a positive control. […] The virus used for this assay is RSV strain Long. […] For each assay, a pre-titered aliquot of virus is removed from the freezer (−80° C.) and allowed to thaw slowly to room temperature in a biological safety cabinet. The virus is resuspended and diluted into tissue culture medium such that the amount of virus added to each well is the amount determined to give between 85 to 95% cell killing at 6-7 days post-infection.

Each structure is given as a SMILES string. Values after ≈ are worked out from the molar mass of the structure shown.

`CC(C)S(=O)(=O)n1c(N)nc2ccc(/C(=N/O)c3ccccc3)cc21` [Enviroxime, enviroxime] displayed a TC50 with MRC-5 cells of more than 10 µg/mL. In the data set on Rhinovirus strain 1B (Enterovirus, MRC5, 168 h, Rhinovirus Strain 1B, MRC-5 cells, 7 days), the IC50 is 0.485 µg/mL (≈ 1.35 µM). In the data set with Rhinovirus strain 1B (TC50/IC50, Rhinovirus), the “Antiviral Index” value is more than 20.6.

Molecule `Cc1cn([C@H]2C[C@H](N=[N+]=[N-])[C@@H](CO)O2)c(=O)[nH]c1=O` [AZT] showed a CC50 with CEM-SS cells of more than 1 µM. Moreover, the midpoint of inhibition with HIV-1 strain IIIB (HIV-1 Strain IIIB, CEM-SS cells, 6 days), the IC50, lay at 0.172 µM. Moreover, the “Antiviral Index” value in the data set with HIV-1 strain IIIB (TC50/IC50, HIV-1) was more than 5.83.

Regarding `Nc1nc2c(ncn2COCCO)c(=O)[nH]1` [Acyclovir, acyclovir], inhibition in the data set on HSV-1 strain HF (Human alphaherpesvirus 1, 120 h, HSV-1 Strain HF, Vero cells, 5 days) was half-maximal at 6.92 µM (IC50). Moreover, the “Antiviral Index” value with HSV-1 strain HF (TC50/IC50, HSV-1) is recorded as more than 14.5. Besides, the CC50 at 5 days in [1] is more than 100 µM.

`NC(=O)c1ncn([C@@H]2O[C@H](CO)[C@@H](O)[C@H]2O)n1` [Ribavirin, ribavirin]: the IC50 was determined as 4.45 µg/mL (≈ 18.2 µM) in data set [2], 7.04 µg/mL (≈ 28.8 µM) in the data set on Coxsackie A strain A7 and 12.2 µg/mL (≈ 50 µM) with RSV strain Long. Further, the TC50 in the data set on Vero E6 cells was more than 200 µg/mL.

By IC50 is commonly meant the concentration at which inhibition is half-maximal.
